What was measured:
[1] = test system: young volunteer healthy subjects of both sexes; assay: Tolerability in young volunteer healthy subjects; type: in vivo; conditions: man, 5-150 mg
[2] = test system: hepatic cholesterol degeneration; assay: Hepatic cholesterol degeneration in the rat (Ridout); type: in vivo; conditions: for Fresh liver weight: three weeks
Description: The values are the averages ± E.S. of 10 values for each group. In studying the hepatoprotective activity we have used an experimental device which produces in the rat the so-called hepatic cholesterol degeneration (Ridout and Coll., Biochem. J. 52, 99, 1952).
In this method, by means of a suitable diet, a conspicuous increase in the total hepatic fats and hepatic cholesterol are obtained in the animals. The substances which act in the lipidic metabolism reduce or annul this increase.
The animals were divided into six groups. The first group was administered with a diet which was varied at will. The second group was administered with the basic diet of Ridout (20 g per rat per day); the other groups were administered with the same diet in the same doses but enriched with cholesterol to the extent of 0.2 g/rat/day. The treatment lasted three weeks. The groups 4,5,6 were administered with SAM in the following doses:
0.4, 0.8, 2 mg/kg/i.p. per day.
At the end of the three weeks all the animals were killed, the livers were withdrawn and the total fats (Best and Coll., Biochem. J. 40, 368, 1966) and cholesterol (Sperry and Brand, J. Biol. Chem. 150, 315, 1943) were determined.

hot plate test = assay: Hot plate analgesia test; type: in vivo; conditions: in comparison with known drugs studied
Description: Of the various tests we shall mention the most classic, namely the edema by carragenine and by egg white as a test for acute inflammation; and granuloma by cotton pellets and arthritis by adjuvant as a test for chronic inflammation. […] The analgesia tests were in the form of the hot plate test and stretching by acetic acid, and the Randal and Selitto test in the rat.

[3] = test system: subjects with hyperdislipidemia in the uncompensated stage; assay: Clinical tests: hyperdislipidemia; type: in vivo, human; conditions: 2-3 times per day
osteoarthritic forms = assay: Clinical tests: osteoarthritis; type: in vivo, human
[4] = test system: neuritis, polyneuritis, anthralgia, sciatica, radiocolitis, torticollis; cephalalgia
Procedure: The antalgic activity of SAM was also tested in different subjects with different neurological frameworks: neuritis, polyneuritis, anthralgia, sciatica, radiocolitis, torticollis.

[5] = test system: disturbances of the sleeping-waking rhythm, insomnia; assay: Clinical tests: disturbances of the sleeping-waking rhythm; type: in vivo, human; conditions: 4-13 mg orally
rabbit = conditions: in vivo, 16 mg/kg
cat = conditions: in vivo, 16 mg/kg

Compound: C[S+](CC[C@H](N)C(=O)O)C[C@H]1O[C@@H](n2cnc3c(N)ncnc32)[C@H](O)[C@@H]1O (stereo partly drawn) [SAM, S-Adenosil-L-Methionine]
- hemopoietic apparatus and hepatic and renal operation ([1]; intravenous): no variations from normal which were statistically significant
- electrocardiograph trace ([1]; intravenous, 30" to 20', PQ interval, ST section, extrasistol): does not show any variation
- minimum and maximum pressure, pulse and respiratory frequency ([1]; rapid intravenous or phleboclysis, 1 minute to 24 hours): does not show any variation from normal values
- protection of the batch ([2]; 2 mg/kg/i.p.): completely protected
- protection of the batch ([2]; 0.4-0.8 mg/kg/i.p.): poorly protected
- Fresh liver weight ([2]; batch IV, 0.4 mg/kg/i.p. per day): 17 g
- Fresh liver weight ([2]; batch V, 0.8 mg/kg/i.p. per day): 16 g
- analgesic activity (hot plate test): active
- dose dependence of hypocholesterolemising and hypolipemising action ([3]; doses of about 8-1.5 mg): proportional to the dose
- hypertriglyceridemia ([3]; hyperdislipidemia): a marked fall
- total cholesterolemia ([3]; hyperdislipidemia): a marked fall
- β/α lipoproteic ratios ([3]; hyperdislipidemia): normalises
- activity in osteoarthritic forms (osteoarthritic forms; 13 mg twice a day intermuscular or intravenous, and 13-20 mg orally 4 times per day): active in all osteoarthritic forms
- muscular spasm, limitation of movement, localised pain and rigidity (osteoarthritic forms; after 7 days, with respect to the placebo): influenced in a statistically significant manner
- therapeutic efficiency vs non-steroid antiphlogistic drug (osteoarthritic forms; double blind study): equal to indomethacin
- therapeutic (antalgic) effect ([4]; neurological frameworks, 6 mg twice a day intermuscular or 13-20 mg 3-4 times per day orally): available and efficient from the first day of administration
- therapeutic effect in recurring and resistant cephalalgia ([4]; orally in masticable tablets): Analogous results were obtained
- sleeping-waking ratios [5]: considerably improve
- carotid pressure, cardiac and respiratory frequency, electrocardiac trace (rabbit): does not cause any change
- carotid pressure, cardiac and respiratory frequency, electrocardiac trace (cat): does not cause any change

From patent US4057686A, “Sulphonic acid salts of S-adenosilmethionine” (Bioresearch Limited, priority 1974, dated 1977)
